Measurements reported in patent publication US11759462B2, “Spirocyclic compounds as tryptophan hydroxylase inhibitors” (priority 2013, dated 2023).

Tested on: jejunal mucosal 5-HT in mice (C57 BL6)
Test: Intestinal 5-HT depletion assay (Example B, single 150 mg/kg oral dose)
Format: in vivo, mouse
Details: one day after oral administration of a single 150 mg/kg dose, P-value class (ANOVA)
Experimental: The efficacy of the TPH1 inhibitors of the invention was assessed for the ability to decrease intestinal serotonin concentration in mice. Mice (C57 BL6) were administered a single 150 mg/kg dose of test article by oral gavage. Each animal was euthanized by exsanguination under isoflurane anesthesia. Jejunal intestinal mucosa was isolated and homogenized in 300 μL of a buffer containing 0.3M trichloroacetic acid, 0.1M sodium acetate, 10 mM EDTA, 20 mM sodium bisulfate and 50 mM ascorbic acid. Following centrifugation the 5-HT levels in the supernatants were measured by HPLC. The remaining mucosal pellet was solubilized overnight at 37° C. in a 0.1% sodium dodecyl sulfate buffer in 0.1N NaOH followed by determination of protein concentrations using a BCA protein assay (Pierce, Rockford, Ill. 5-HT levels were normalized to protein and data were expressed as mean percent reduction of mucosal 5-HT levels relative to vehicle control SEM (percent 5-HT reduction). All animal studies were carried out with protocols approved by the Institutional Animal Care and Use Committee.
P-values, indicating statistical significance of the data (ANOVA) are provided in the table: * refers to P<0.05, ** refers to P<0.01, *** refers to P<0.005, and refers to P<0.0005.

Compound	Efficacy (statistical significance of reduction of mucosal 5-HT concentrations relative to vehicle)
CCOC(=O)c1cccc(-c2ccc([C@@H](Oc3cc(N4CCC5(CC4)CN[C@H](C(=O)O)C5)nc(N)n3)C(F)(F)F)c(-n3ccc(C)n3)c2)c1 [Example 5]	** (** refers to P<0.01)
Cc1ccn(-c2cc(C(F)(F)F)ccc2[C@@H](Oc2cc(N3CCC4(CC3)CN[C@H](C(=O)O)C4)nc(N)n2)C(F)(F)F)n1 [Example 10g, (S)-8-(2-amino-6-((R)-2,2,2-trifluoro-1-(2-(3-methyl-1H-pyrazol-1-yl)-4-(trifluoromethyl)phenyl)ethoxy)pyrimidin-4-yl)-2,8-diazaspiro[4.5]decane-3-carboxylic acid]	** (** refers to P<0.01)

Biological target: T1, Recombinant human TPH1 (MBP tagged) (Homo sapiens, UniProt P17752)
T1 construct: cloning full length human TPH1 cDNA in to a bacterial pMAL-c5E expression vector; made in house; host or cells: E. coli BL21 (DE3)
T1 sequence (P17752 1-444): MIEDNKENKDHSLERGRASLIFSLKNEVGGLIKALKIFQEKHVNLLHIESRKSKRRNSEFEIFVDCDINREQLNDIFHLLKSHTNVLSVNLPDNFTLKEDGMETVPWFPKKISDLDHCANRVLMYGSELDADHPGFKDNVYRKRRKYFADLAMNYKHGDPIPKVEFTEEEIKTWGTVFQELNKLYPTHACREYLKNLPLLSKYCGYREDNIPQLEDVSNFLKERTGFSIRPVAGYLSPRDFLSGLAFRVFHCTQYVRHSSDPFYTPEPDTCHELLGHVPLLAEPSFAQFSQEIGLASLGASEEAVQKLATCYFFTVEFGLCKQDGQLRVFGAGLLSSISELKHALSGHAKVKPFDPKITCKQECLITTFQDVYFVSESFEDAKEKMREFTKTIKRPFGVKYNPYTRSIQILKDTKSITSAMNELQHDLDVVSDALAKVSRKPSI
Test: TPH1 in vitro inhibition assay (kinetic fluorescence)
Format: biochemical
Details: TPH1 Range (TPH1 inhibition IC50)
Outline: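 Final mix: 15 nM MBP-TPH1, 30 μM Trp, 36 μM 6-methyltetrahydropterin, 25 μM ferrous ammonium sulfate, 50 mM MES pH 7.1, 1% DMSO, room temperature.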

Compound	IC50 [nM]
Nc1nc(O[C@H](c2ccc(-c3ccc4c(c3)CCC(=O)N4)cc2)C(F)(F)F)cc(N2CCC3(CC2)CN[C@H](C(=O)O)C3)n1 [Example 55v, (S)-8-(2-amino-6-((R)-2,2,2-trifluoro-1-(4-(2-oxo-1,2,3,4-tetrahydroquinolin-6-yl)phenyl)ethoxy)pyrimidin-4-yl)-2,8-diazaspiro[4.5]decane-3-carboxylic acid]	< 50
Nc1nc(O[C@H](c2ccc(-c3ccc4[nH]ncc4c3)cc2)C(F)(F)F)cc(N2CCC3(CC2)CN[C@H](C(=O)O)C3)n1 [Example 55w, (S)-8-(6-((R)-1-(4-(1H-indazol-5-yl)phenyl)-2,2,2-trifluoroethoxy)-2-aminopyrimidin-4-yl)-2,8-diazaspiro[4.5]decane-3-carboxylic acid]	< 50

Same assay, conditions: read-out: TPH1 Range (TPH1 inhibition IC50)

Compound	IC50 [nM]
Nc1nc(O[C@H](c2ccc(-c3ccc4[nH]c(=O)ccc4c3)cc2)C(F)(F)F)cc(N2CCC3(CC2)CN[C@H](C(=O)O)C3)n1 [Example 55t, (S)-8-(2-amino-6-((R)-2,2,2-trifluoro-1-(4-(2-oxo-1,2-dihydroquinolin-6-yl)phenyl)ethoxy)pyrimidin-4-yl)-2,8-diazaspiro[4.5]decane-3-carboxylic acid]	50 to 300
Cn1c(=O)ccc2cc(-c3ccc([C@@H](Oc4cc(N5CCC6(CC5)CN[C@H](C(=O)O)C6)nc(N)n4)C(F)(F)F)cc3)ccc21 [Example 55u, (S)-8-(2-amino-6-((R)-2,2,2-trifluoro-1-(4-(1-methyl-2-oxo-1,2-dihydroquinolin-6-yl)phenyl)ethoxy)pyrimidin-4-yl)-2,8-diazaspiro[4.5]decane-3-carboxylic acid]	50 to 300
Cc1nn(C)c2ccc(-c3ccc([C@@H](Oc4cc(N5CCC6(CC5)CN[C@H](C(=O)O)C6)nc(N)n4)C(F)(F)F)cc3)cc12 [Example 55x, (S)-8-(2-amino-6-((R)-1-(4-(1,3-dimethyl-1H-indazol-5-yl)phenyl)-2,2,2-trifluoroethoxy)pyrimidin-4-yl)-2,8-diazaspiro[4.5]decane-3-carboxylic acid]	50 to 300
Cc1cn(C)c2ccc(-c3ccc([C@@H](Oc4cc(N5CCC6(CC5)CN[C@H](C(=O)O)C6)nc(N)n4)C(F)(F)F)cc3)cc12 [Example 55y, (S)-8-(2-amino-6-((R)-1-(4-(1,3-dimethyl-1H-indol-5-yl)phenyl)-2,2,2-trifluoroethoxy)pyrimidin-4-yl)-2,8-diazaspiro[4.5]decane-3-carboxylic acid]	50 to 300
COc1cc(-c2ccc([C@@H](Oc3cc(N4CCC5(CC4)CN[C@H](C(=O)O)C5)nc(N)n3)C(F)(F)F)cc2)cc(C(F)(F)F)c1 [Example 55z, (S)-8-(2-amino-6-((R)-2,2,2-trifluoro-1-(3′-methoxy-5′-(trifluoromethyl)-[1,1′-biphenyl]-4-yl)ethoxy)pyrimidin-4-yl)-2,8-diazaspiro[4.5]decane-3-carboxylic acid]	50 to 300
Nc1nc(O[C@H](c2ccc(-c3ccc4c(c3)NCCN4)cc2)C(F)(F)F)cc(N2CCC3(CC2)CN[C@H](C(=O)O)C3)n1 [Example 56, (S)-8-(2-amino-6-((R)-2,2,2-trifluoro-1-(4-(1,2,3,4-tetrahydroquinoxalin-6-yl)phenyl)ethoxy)pyrimidin-4-yl)-2,8-diazaspiro[4.5]decane-3-carboxylic acid]	50 to 300
Nc1nc(O[C@H](c2ccc3c(c2)CNCN3)C(F)(F)F)cc(N2CCC3(CC2)CN[C@H](C(=O)O)C3)n1 [Example 58, (S)-8-(2-amino-6-((R)-2,2,2-trifluoro-1-(1,2,3,4-tetrahydroquinazolin-6-yl)ethoxy)pyrimidin-4-yl)-2,8-diazaspiro[4.5]decane-3-carboxylic acid]	50 to 300
Nc1nc(O[C@H](c2ccc(Br)cc2)C(F)(F)F)cc(N2CCC3(CC2)CN[C@H](C(=O)O)C3)n1 [Example 59, (S)-8-(2-amino-6-((R)-1-(4-bromophenyl)-2,2,2-trifluoroethoxy)pyrimidin-4-yl)-2,8-diazaspiro[4.5]decane-3-carboxylic acid]	300 to 3000
Nc1nc(O[C@H](c2ccc3ccccc3c2)C(F)(F)F)cc(N2CCC3(CC2)CN[C@H](C(=O)O)C3)n1 [Example 59b, (S)-8-(2-amino-6-((R)-2,2,2-trifluoro-1-(naphthalen-2-yl)ethoxy)pyrimidin-4-yl)-2,8-diazaspiro[4.5]decane-3-carboxylic acid]	300 to 3000
Cc1cc(-c2ccc3ncc(F)cc3c2)ccc1[C@@H](Oc1cc(N2CCC3(CC2)CN[C@H](C(=O)O)C3)nc(N)n1)C(F)(F)F [Example 59c, (S)-8-(2-amino-6-((R)-2,2,2-trifluoro-1-(4-(3-fluoroquinolin-6-yl)-2-methylphenyl)ethoxy)pyrimidin-4-yl)-2,8-diazaspiro[4.5]decane-3-carboxylic acid]	50 to 300
CCc1cc(-c2ccc3ncc(F)cc3c2)ccc1[C@@H](Oc1cc(N2CCC3(CC2)CN[C@H](C(=O)O)C3)nc(N)n1)C(F)(F)F [Example 59d, (S)-8-(2-amino-6-((R)-1-(2-ethyl-4-(3-fluoroquinolin-6-yl)phenyl)-2,2,2-trifluoroethoxy)pyrimidin-4-yl)-2,8-diazaspiro[4.5]decane-3-carboxylic acid]	50 to 300
CS(=O)(=O)c1cccc(-c2cc(Cl)ccc2COc2cc(N3CCC4(CC3)CN[C@H](C(=O)O)C4)nc(N)n2)c1 [Example 62, (S)-8-(2-amino-6-((5-chloro-3′-(methylsulfonyl)-[1,1′-biphenyl]-2-yl)methoxy)pyrimidin-4-yl)-2,8-diazaspiro[4.5]decane-3-carboxylic acid]	50 to 300
(S)-8-(2-Amino-6-((4-(3-methyl-H-indazol-6-yl)phenoxy)methyl)pyrimidin-4-yl)-2,8-diazaspiro[4.5]decane-3-carboxylic acid [Example 61]	50 to 300
(S)-8-(2-amino-6-((R)-1-(3,4-dihydroquinazolin-6-yl)-2,2,2-trifluoroethoxy)pyrimidin-4-yl)-2,8-diazaspiro[4.5]decane-3-carboxylic acid [Example 57]	50 to 300
(S)-8-(2-amino-6-((R)-1-(4-bromo-2-(3-methyl-H-pyrazol-1-yl)phenyl)-2,2,2-trifluoroethoxy)pyrimidin-4-yl)-2,8-diazaspiro[4.5]decane-3-carboxylic acid [Example 10o]	< 50
(S)-8-(2-amino-6-((R)-1-(5-chloro-3′-isopropyl-[1,1′- biphenyl]-2-yl)-2,2,2-trifluoroethoxy)pyrimidin-4- yl)-2,8-diazaspiro[4.5]decane-3-carboxylic acid [Example 34ce]	50 to 300
(S)-8-(2-amino-6-((R)-2,2,2-trifluoro-1-(3-(3- methyl-1H-pyrazol-1-yl)-2′,3′,4′,5′-tetrahydro- [1,1′-biphenyl]-4-yl)ethoxy)pyrimidin-4-yl)- 2,8-diazaspiro[4.5]decane-3-carboxylic acid [Example 1v]	< 50
(S)-8-(2-amino-6-((R)-2,2,2-trifluoro-1-(3′,4,5′- trifluoro-[1,1′-biphenyl]-4-yl)ethoxy)pyrimidin-4- yl)-2,8-diazaspiro[4.5]decane-3-carboxylic acid [Example 55co]	50 to 300
(S)-8-(6-((R)-1-(4-(1H-indol-6-yl)-2-(3-methyl- 1H-pyrazol-1-yl)phenyl)-2,2,2-trifluoroethoxy)- 2-aminopyrimidin-4-yl)-2,8- diazaspiro[4.5]decane-3-carboxylic acid [Example 1aa]	< 50
